The source of these data is patent US20220324835A1 (Nurix Therapeutics, Inc., priority 2018, published 2022).

Test [1] has as its target T1, Cbl-b (Homo sapiens, UniProt Q13191). Description: Cbl-b inhibition assay (Cbl-b activity assay, FRET, Biological Example 1; 100 mM NaCl, 60 nM Src kinase). The format is biochemical. The settings on record: upper bound stated in text lists; read-out: IC50 values in the Cbl-b inhibition assay of Biological Example 1. The essentials:
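TR-FRET assay using N-terminal biotinylated Avi-tagged Cbl-b bound to streptavidin-terbium, Src kinase for Cbl-b phosphorylation, and UbcH5B irreversibly conjugated to Bodipy-Fluorescein-ubiquitin. Phosphorylated Cbl-b binds UbcH5B-Ub, bringing the fluorophores together; inhibition is read as loss of FRET signal.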

The test system of test [2] is T-cell. Put plainly: IL-2 secretion from T-cells co-stimulated with anti-CD3 and anti-CD28 antibody (Biological Example 2). The format is cell-based, human. The settings on record: Homo sapiens, T-cell, fold change over baseline (anti-CD3/anti-CD28 stimulated T-cells without inhibitor), read-out: IL-2 secretion Anti-CD3/Anti-CD28 stimulation; for fold induction at 0.3 µM: 0.3 μM Cbl-b inhibitor; for fold induction at 1 µM: 1 μM Cbl-b inhibitor. The essentials:
(§1)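 T-cells were stimulated with anti-CD3 antibody alone or with anti-CD28 antibody, in the presence or absence of Cbl-b inhibitor. IL-2 secretion or CD25 surface staining was measured, and values expressed as fold over the uninhibited baseline […].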

For test [3], the system named is T-cell. Description: IL-2 secretion from T-cells stimulated with anti-CD3 antibody alone (Biological Example 2). The following applies: Homo sapiens, T-cell; 1 μM Cbl-b inhibitor; fold change over baseline (anti-CD3/anti-CD28 stimulated T-cells without inhibitor); read-out: IL-2 secretion Anti-CD3 stimulation. The format is cell-based, human.
Test [4] has as its system T-cell. Put plainly: CD25 cell surface staining on T-cells co-stimulated with anti-CD3 and anti-CD28 antibody (Biological Example 2). The test is classed as cell-based, human. The following applies: Homo sapiens, T-cell, fold change over baseline (anti-CD3/anti-CD28 stimulated T-cells without inhibitor), read-out: CD25 staining Anti-CD3/Anti-CD28 stimulation; for fold induction at 0.3 µM: 0.3 μM Cbl-b inhibitor; for fold induction at 1 µM: 1 μM Cbl-b inhibitor. In outline:
as §1

Test [5] has as its system T-cell. Put plainly: CD25 cell surface staining on T-cells stimulated with anti-CD3 antibody alone (Biological Example 2). The test is classed as cell-based, human. The settings on record: Homo sapiens, T-cell; 1 μM Cbl-b inhibitor; fold change over baseline (anti-CD3/anti-CD28 stimulated T-cells without inhibitor); read-out: CD25 staining Anti-CD3 stimulation.
Test [6] deals with T1, Cbl-b. Put plainly: Cbl-b activity assay (Cbl-b inhibition assay), TR-FRET of Cbl-b interaction with UbcH5B-Ub. The test is classed as biochemical. The settings on record: assay buffer with 100 mM NaCl, 60 nM Src kinase; read-out: Cbl-b activity IC50. The essentials: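 UbcH5B (C85K) conjugated to N-terminally Bodipy-Fluorescein-labeled ubiquitin served as the fluorescent partner. After compound preincubation, Src kinase (60 nM) with 1 mM ATP and 5 mM MgCl2 (final) was added for 1.5 h, followed by a further 1 h incubation. Some values were obtained with 50 mM NaCl and 30 nM Src.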
Background: Time-resolved FRET reads energy transfer from a long-lived donor to a nearby acceptor.

T1 sequence (Q13191 36-427): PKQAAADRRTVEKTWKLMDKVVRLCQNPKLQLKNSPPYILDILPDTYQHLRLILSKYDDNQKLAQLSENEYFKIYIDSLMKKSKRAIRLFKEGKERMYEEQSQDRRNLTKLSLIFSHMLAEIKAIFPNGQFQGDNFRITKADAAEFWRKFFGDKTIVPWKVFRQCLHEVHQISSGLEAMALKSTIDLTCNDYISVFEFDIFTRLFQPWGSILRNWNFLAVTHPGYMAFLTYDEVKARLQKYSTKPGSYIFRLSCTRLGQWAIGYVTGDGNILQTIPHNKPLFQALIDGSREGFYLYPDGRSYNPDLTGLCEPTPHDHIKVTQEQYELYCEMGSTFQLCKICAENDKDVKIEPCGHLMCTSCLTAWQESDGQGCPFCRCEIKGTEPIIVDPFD

Take `Cn1cnnc1CC1(c2cccc(N3Cc4c(cc(N5CC(C(F)F)C5)nc4C4CC4)C3=O)c2)COC1` [Example 609, 4-cyclopropyl-6-(3-(difluoromethyl)azetidin-1-yl)-2-(3-(3-((4-methyl-4H-1,2,4-triazol-3-yl)methyl)oxetan-3-yl)phenyl)-2,3-dihydro-1H-pyrrolo[3,4-c]pyridin-1-one]: the IC50 (commonly the concentration at which inhibition is half-maximal) at Cbl-b [1] was not above 0.1 µM; at Cbl-b [6], less than 0.1 µM. Also, the fold induction at 0.3 µM lay within 2.51 to 5 in the test with T-cell [2] and 1.01 to 1.3 in the test with T-cell [4]. For the same molecule, the fold induction at 1 µM with T-cell [2] is 5 to 7.5; in the test with T-cell [3] it was 0.101 to 0.15; in the test with T-cell [4] it was 1.01 to 1.3; with T-cell [5], 0.801 to 1.
Turning to `Cn1cnnc1CC1(c2cccc(NC(=O)c3cc(N4CC(C(F)F)C4)nc(C4CC4)n3)c2)COC1` [Example 610, 2-cyclopropyl-6-(3-(difluoromethyl)azetidin-1-yl)-N-(3-(3-((4-methyl-4H-1,2,4-triazol-3-yl)methyl)oxetan-3-yl)phenyl)pyrimidine-4-carboxamide], the values for the IC50 on Cbl-b [1] and at Cbl-b [6] were not above 0.1 µM and less than 0.1 µM, respectively. The values for the fold induction at 0.3 µM in the test on T-cell [2] and in the test with T-cell [4] were 2.51 to 5 and 1.01 to 1.3, respectively. Moreover, the fold induction at 1 µM in the test on T-cell [2] was more than 7.5; with T-cell [3], 0.101 to 0.15; in the test with T-cell [4], 1.01 to 1.3; in the test with T-cell [5] it was 0.801 to 1.
Take `Cn1cnnc1CC1(c2cccc(N3Cc4c(cc(C5CCC5)cc4C(F)(F)F)C3=O)c2)COC1` [Example 611, 6-cyclobutyl-2-(3-(3-((4-methyl-4H-1,2,4-triazol-3-yl)methyl)oxetan-3-yl)phenyl)-4-(trifluoromethyl)isoindolin-1-one]: the IC50 at Cbl-b [1] was not above 0.1 µM; at Cbl-b [6] it was less than 0.1 µM. Further, the fold induction at 0.3 µM with T-cell [2] is 2.51 to 5; in the test on T-cell [4] it was 1.01 to 1.3. Besides, the fold induction at 1 µM with T-cell [2] lay in the range of 2.51 to 5; in the test on T-cell [3], 0.101 to 0.15; in the test with T-cell [4] it was 1.31 to 1.5; with T-cell [5], 0.801 to 1.
`Cn1cnnc1CC1(c2cccc(N3Cc4c(cc(C5=CCOC5)cc4C(F)(F)F)C3=O)c2)COC1` [Example 612, 6-(2,5-dihydrofuran-3-yl)-2-(3-(3-((4-methyl-4H-1,2,4-triazol-3-yl)methyl)oxetan-3-yl)phenyl)-4-(trifluoromethyl)isoindolin-1-one]: the results for the IC50 at Cbl-b [1] and on Cbl-b [6] were not above 0.1 µM and less than 0.1 µM, respectively. In addition, the fold induction at 0.3 µM lay within 2.51 to 5 with T-cell [2] and 1.01 to 1.3 with T-cell [4]. Moreover, the fold induction at 1 µM in the test with T-cell [2] lay in the range of 2.51 to 5; in the test with T-cell [3] it was 0.101 to 0.15; with T-cell [4] it was 1.31 to 1.5; in the test with T-cell [5], 0.801 to 1.
As to `Cn1cnnc1CC1(c2cccc(N3Cc4c(cc(C5CCOC5)cc4C(F)(F)F)C3=O)c2)COC1` (stereo not shown) [Example 613, 2-(3-(3-((4-methyl-4H-1,2,4-triazol-3-yl)methyl)oxetan-3-yl)phenyl)-6-(THF-3-yl)-4-(trifluoromethyl)isoindolin-1-one], the 50% inhibitory concentration (IC50) at Cbl-b [1] is not above 0.1 µM; at Cbl-b [6] it was less than 0.1 µM. The fold induction at 0.3 µM with T-cell [2] lay within 2.51 to 5; with T-cell [4], 1.01 to 1.3. In addition, the fold induction at 1 µM fell in the range of 5 to 7.5 with T-cell [2], 0.101 to 0.15 in the test with T-cell [3], 1.01 to 1.3 with T-cell [4] and 0.801 to 1 with T-cell [5].
Regarding `Cn1cnnc1CC1(c2cccc(N3Cc4c(cc(C5=CCCOC5)cc4C(F)(F)F)C3=O)c2)COC1` [Example 614], the half-maximal inhibitory concentration (IC50) is not above 0.1 µM on Cbl-b [1] and less than 0.1 µM on Cbl-b [6]. Moreover, the fold induction at 0.3 µM lay within 2.51 to 5 in the test with T-cell [2] and 1.01 to 1.3 in the test on T-cell [4]. Besides, the fold induction at 1 µM in the test with T-cell [2] is 2.51 to 5; in the test with T-cell [3], 0.101 to 0.15; in the test with T-cell [4], 1.01 to 1.3; in the test with T-cell [5] it was 0.801 to 1.
Consider `Cn1cnnc1[C@@H](F)C1(c2cccc(N3Cc4c(cc(CN5CCC6(CC6)C5)cc4C(F)(F)F)C3=O)c2)COC1` [Example 618, (S)-6-((5-azaspiro[2.4]heptan-5-yl)methyl)-2-(3-(3-(fluoro(4-methyl-4H-1,2,4-triazol-3-yl)methyl)oxetan-3-yl)phenyl)-4-(trifluoromethyl)isoindolin-1-one], for which the 50% inhibitory concentration (IC50) on Cbl-b [1] is not above 0.1 µM; on Cbl-b [6] it was less than 0.1 µM. Moreover, the fold induction at 0.3 µM fell in the range of 5 to 7.5 with T-cell [2] and 1.01 to 1.3 in the test with T-cell [4]. Further, the fold induction at 1 µM in the test with T-cell [2] was more than 7.5; in the test on T-cell [3], 0.101 to 0.15; in the test on T-cell [4], 1.31 to 1.5; in the test with T-cell [5] it was more than 1.
In the case of `Cn1cnnc1CC1(c2cccc(N3Cc4c(cc(CN5CC6CC5CO6)cc4C(F)(F)F)C3=O)c2)COC1` (stereo not shown) [Example 619, 6-((2-oxa-5-azabicyclo[2.2.1]heptan-5-yl)methyl)-2-(3-(3-((4-methyl-4H-1,2,4-triazol-3-yl)methyl)oxetan-3-yl)phenyl)-4-(trifluoromethyl)isoindolin-1-one], the IC50 at Cbl-b [1] is not above 0.1 µM; on Cbl-b [6], less than 0.1 µM. Also, the fold induction at 0.3 µM in the test with T-cell [2] was in the range of 2.51 to 5; with T-cell [4] it was 1.01 to 1.3. The fold induction at 1 µM was in the range of 5 to 7.5 in the test with T-cell [2], 0.051 to 0.1 in the test with T-cell [3], 1.01 to 1.3 with T-cell [4] and 0.801 to 1 in the test with T-cell [5].
As to `Cn1cnnc1CC1(c2cccc(N3Cc4c(cc(CN5CCC[C@@H](F)C5)cc4C(F)(F)F)C3=O)c2)COC1` [Example 623, (R)-6-((3-fluoropiperidin-1-yl)methyl)-2-(3-(3-((4-methyl-4H-1,2,4-triazol-3-yl)methyl)oxetan-3-yl)phenyl)-4-(trifluoromethyl)isoindolin-1-one], the values for the IC50 at Cbl-b [1] and on Cbl-b [6] were not above 0.1 µM and less than 0.1 µM, respectively. Also, the fold induction at 0.3 µM is more than 7.5 in the test with T-cell [2] and 1.31 to 1.5 in the test with T-cell [4]. Moreover, the fold induction at 1 µM was more than 7.5 in the test on T-cell [2], more than 0.201 in the test with T-cell [3], 1.31 to 1.5 in the test on T-cell [4] and more than 1 with T-cell [5].
As to `CCN1CCN(Cc2cc3c(c(C(F)(F)F)c2)CN(c2cccc(C4(Cc5nncn5C)COC4)c2)C3=O)CC1` [Example 624, 6-((4-ethylpiperazin-1-yl)methyl)-2-(3-(3-((4-methyl-4H-1,2,4-triazol-3-yl)methyl)oxetan-3-yl)phenyl)-4-(trifluoromethyl)isoindolin-1-one], the IC50 is not above 0.1 µM at Cbl-b [1] and less than 0.1 µM at Cbl-b [6]. In addition, the fold induction at 0.3 µM lay in the range of 5 to 7.5 with T-cell [2] and 1.31 to 1.5 in the test with T-cell [4]. Besides, the fold induction at 1 µM in the test on T-cell [2] is more than 7.5; in the test on T-cell [3] it was more than 0.201; in the test with T-cell [4], 1.31 to 1.5; in the test on T-cell [5], more than 1.
Turning to `CN1CCN(Cc2cc3c(c(C(F)(F)F)c2)CN(c2cccc(C4(Cc5nncn5C)COC4)c2)C3=O)CC1` [Example 625, 2-(3-(3-((4-methyl-4H-1,2,4-triazol-3-yl)methyl)oxetan-3-yl)phenyl)-6-((4-methylpiperazin-1-yl)methyl)-4-(trifluoromethyl)isoindolin-1-one], the IC50 was not above 0.1 µM on Cbl-b [1] and less than 0.1 µM on Cbl-b [6]. The fold induction at 0.3 µM with T-cell [2] lay in the range of 2.51 to 5; in the test on T-cell [4], 1.31 to 1.5. For the same molecule, the fold induction at 1 µM is more than 7.5 in the test on T-cell [2], more than 0.201 in the test with T-cell [3], 1.31 to 1.5 in the test on T-cell [4] and more than 1 in the test on T-cell [5].
